Test results as given in PMC10127945 (Nature chemical biology, 2022).

Key:
SARS-CoV-2 = assay type: cell-based, SARS-CoV-2 (USA-WA1/2020)
[1] = target: ACE2/SARS-CoV-2 Spike protein binding (Homo sapiens, UniProt Q9BYF1); assay type: cell-based
SARS-CoV-2 Spike protein = SARS-CoV-2 Spike protein (Severe acute respiratory syndrome coronavirus 2, UniProt P0DTC2); assay type: biochemical
[2] = Stability in aqueous solution; assay type: physicochemical; settings: neutral pH
ACE2 = ACE2 (Homo sapiens, UniProt Q9BYF1); experiment: Biotin-switch assay for SNO-ACE2 in HeLa-ACE2 cells; assay type: cell-based; settings: 100 μM SNOC
Sequence of ACE2 (Q9BYF1 18-805): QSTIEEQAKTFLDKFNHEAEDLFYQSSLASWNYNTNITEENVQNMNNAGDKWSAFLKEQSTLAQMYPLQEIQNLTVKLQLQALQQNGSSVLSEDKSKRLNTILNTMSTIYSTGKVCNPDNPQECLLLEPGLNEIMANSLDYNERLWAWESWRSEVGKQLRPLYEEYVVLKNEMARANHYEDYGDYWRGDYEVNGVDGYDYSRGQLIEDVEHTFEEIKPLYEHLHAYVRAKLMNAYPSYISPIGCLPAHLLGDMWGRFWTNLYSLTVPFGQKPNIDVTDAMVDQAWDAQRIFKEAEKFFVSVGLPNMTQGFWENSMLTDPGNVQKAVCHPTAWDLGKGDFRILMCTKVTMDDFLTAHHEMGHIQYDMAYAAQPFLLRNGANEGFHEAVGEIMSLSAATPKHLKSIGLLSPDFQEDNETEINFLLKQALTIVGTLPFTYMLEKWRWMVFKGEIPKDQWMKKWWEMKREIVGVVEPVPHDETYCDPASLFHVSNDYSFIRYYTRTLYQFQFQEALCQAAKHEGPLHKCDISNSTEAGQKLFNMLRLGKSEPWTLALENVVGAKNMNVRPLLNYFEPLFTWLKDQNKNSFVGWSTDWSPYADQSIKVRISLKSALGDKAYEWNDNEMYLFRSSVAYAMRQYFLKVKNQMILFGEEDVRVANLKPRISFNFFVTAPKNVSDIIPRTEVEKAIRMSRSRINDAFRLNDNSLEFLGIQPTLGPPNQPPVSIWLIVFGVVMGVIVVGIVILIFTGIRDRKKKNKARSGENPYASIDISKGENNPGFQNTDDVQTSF

TMPRSS2 = TMPRSS2 (Homo sapiens, UniProt O15393); experiment: Biotin-switch assay for SNO-TMPRSS2; assay type: cell-based; settings: 100 μM SNOC, 20 minutes, HeLa-ACE2 cells
Sequence of TMPRSS2 (O15393 whole entry): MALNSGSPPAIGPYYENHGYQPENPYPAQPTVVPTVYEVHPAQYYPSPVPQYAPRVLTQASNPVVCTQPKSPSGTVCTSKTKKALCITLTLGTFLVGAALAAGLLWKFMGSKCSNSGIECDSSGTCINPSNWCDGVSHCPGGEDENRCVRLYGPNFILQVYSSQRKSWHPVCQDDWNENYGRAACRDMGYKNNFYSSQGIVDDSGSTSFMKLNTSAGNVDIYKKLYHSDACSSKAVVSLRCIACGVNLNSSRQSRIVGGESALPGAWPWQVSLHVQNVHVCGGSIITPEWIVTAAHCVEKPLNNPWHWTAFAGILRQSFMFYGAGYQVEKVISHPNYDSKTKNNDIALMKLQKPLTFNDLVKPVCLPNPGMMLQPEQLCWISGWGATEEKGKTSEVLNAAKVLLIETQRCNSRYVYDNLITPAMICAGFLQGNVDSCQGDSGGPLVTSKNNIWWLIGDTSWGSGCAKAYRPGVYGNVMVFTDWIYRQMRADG

[3] = target: SARS-CoV-2 envelope (E) protein viroporin ion channel (Severe acute respiratory syndrome coronavirus 2, UniProt P0DTC4); assay type: cell-based
Sequence of SARS-CoV-2 envelope (E) protein viroporin ion channel (P0DTC4 whole entry): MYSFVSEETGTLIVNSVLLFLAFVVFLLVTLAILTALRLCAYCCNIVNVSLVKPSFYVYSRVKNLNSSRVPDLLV

Sequence of ACE2/SARS-CoV-2 Spike protein binding (Q9BYF1 18-805 limits assumed): as the sequence (Q9BYF1 18-805) above

Q: With NC12CC3CC(CC(C3)C1)C2 [amantadine] as the compound, how does the “efficacy against live SARS-CoV-2 infection” value (SARS-CoV-2) read?
A: no efficacy

Q: Which results are given for S-nitrosocysteine [SNOC]?
A: binding of purified S protein to HeLa-ACE2 cells [1]: significantly decreased binding; S-nitrosylation of Spike protein (SARS-CoV-2 Spike protein): Lack of S-nitrosylation; time for NO to dissipate [2]: < 5 min; stability (persistence) of SNO-ACE2 formation (ACE2): at least 12 h; S-nitrosylation of ACE2 (ACE2; 20 minutes): could be S-nitrosylated; S-nitrosylation of TMPRSS2 (TMPRSS2): could be S-nitrosylated

Q: Which results are given for CC12CC3CC(C)(C1)CC(N)(C3)C2 [memantine]?
A: efficacy against live SARS-CoV-2 infection (SARS-CoV-2): no efficacy; inhibition of E protein voltage-dependent K+ current [3]: inhibited
